Experimental data: ChEMBL document CHEMBL4359833, “Philanthotoxin Analogues That Selectively Inhibit Ganglionic Nicotinic Acetylcholine Receptors with Exceptional Potency” (J Med Chem, 2019)

What was measured:
Format in all cases: cell-based
[1] = biological target: T1, Neuronal acetylcholine receptor; alpha4/beta2 (Homo sapiens, UniProt P17787+P43681); test: Antagonist activity at alpha4beta2 nAChR (unknown origin) expressed in Xenopus laevis oocytes assessed as inhibition of Ach-induced channel activation at -100 mV holding potential treated for 1 min by two electrode voltage-clamp assay
T1 sequence (P17787 whole entry): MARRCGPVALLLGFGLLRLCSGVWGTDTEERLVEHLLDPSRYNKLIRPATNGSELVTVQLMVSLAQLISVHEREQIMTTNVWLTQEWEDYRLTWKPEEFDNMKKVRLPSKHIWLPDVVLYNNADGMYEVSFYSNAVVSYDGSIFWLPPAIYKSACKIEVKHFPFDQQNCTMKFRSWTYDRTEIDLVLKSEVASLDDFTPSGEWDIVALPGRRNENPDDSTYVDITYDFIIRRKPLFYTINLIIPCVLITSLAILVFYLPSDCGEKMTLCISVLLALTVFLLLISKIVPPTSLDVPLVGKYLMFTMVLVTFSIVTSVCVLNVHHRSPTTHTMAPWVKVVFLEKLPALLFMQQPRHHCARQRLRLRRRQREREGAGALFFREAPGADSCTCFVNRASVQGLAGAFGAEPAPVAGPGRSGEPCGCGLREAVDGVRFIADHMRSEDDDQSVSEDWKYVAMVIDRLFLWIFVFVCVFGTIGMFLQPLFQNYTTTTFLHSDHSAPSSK
T1 sequence (P43681 whole entry): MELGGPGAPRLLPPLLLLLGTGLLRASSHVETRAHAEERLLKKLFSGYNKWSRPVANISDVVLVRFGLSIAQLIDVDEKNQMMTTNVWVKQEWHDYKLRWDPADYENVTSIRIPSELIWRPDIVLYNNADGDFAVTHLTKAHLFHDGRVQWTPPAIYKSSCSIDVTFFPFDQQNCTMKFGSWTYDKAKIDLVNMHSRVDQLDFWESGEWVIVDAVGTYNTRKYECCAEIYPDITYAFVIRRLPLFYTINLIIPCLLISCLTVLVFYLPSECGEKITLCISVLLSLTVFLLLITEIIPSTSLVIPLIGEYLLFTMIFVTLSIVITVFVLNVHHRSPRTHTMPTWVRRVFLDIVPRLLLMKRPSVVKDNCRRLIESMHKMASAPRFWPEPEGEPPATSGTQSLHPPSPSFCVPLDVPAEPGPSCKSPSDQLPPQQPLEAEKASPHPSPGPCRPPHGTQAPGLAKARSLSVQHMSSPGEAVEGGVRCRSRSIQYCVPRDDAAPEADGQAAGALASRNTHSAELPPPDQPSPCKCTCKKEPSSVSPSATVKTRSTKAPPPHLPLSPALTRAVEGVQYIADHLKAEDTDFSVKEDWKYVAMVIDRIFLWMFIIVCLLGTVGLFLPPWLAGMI

[2] = biological target: T2, Neuronal acetylcholine receptor; alpha3/beta4 (Homo sapiens, UniProt P30926+P32297); test: Antagonist activity at alpha3beta4 nAChR (unknown origin) expressed in Xenopus laevis oocytes assessed as inhibition of Ach-induced channel activation at -100 mV holding potential treated for 1 min by two electrode voltage-clamp assay
T2 sequence (P30926 whole entry): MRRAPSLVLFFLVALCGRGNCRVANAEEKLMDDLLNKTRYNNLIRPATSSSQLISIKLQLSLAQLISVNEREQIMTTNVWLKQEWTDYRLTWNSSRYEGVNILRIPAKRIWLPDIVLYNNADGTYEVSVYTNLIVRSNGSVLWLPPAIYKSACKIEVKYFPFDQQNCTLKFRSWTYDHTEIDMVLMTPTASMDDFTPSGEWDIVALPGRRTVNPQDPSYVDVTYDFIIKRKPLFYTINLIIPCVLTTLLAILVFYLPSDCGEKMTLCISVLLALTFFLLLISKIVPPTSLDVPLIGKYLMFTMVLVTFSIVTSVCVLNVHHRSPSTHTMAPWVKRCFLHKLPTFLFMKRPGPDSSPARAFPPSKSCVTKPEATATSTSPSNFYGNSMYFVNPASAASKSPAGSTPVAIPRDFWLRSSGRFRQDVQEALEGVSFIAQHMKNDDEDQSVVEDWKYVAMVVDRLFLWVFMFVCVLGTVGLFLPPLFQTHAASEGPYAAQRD
T2 sequence (P32297 whole entry): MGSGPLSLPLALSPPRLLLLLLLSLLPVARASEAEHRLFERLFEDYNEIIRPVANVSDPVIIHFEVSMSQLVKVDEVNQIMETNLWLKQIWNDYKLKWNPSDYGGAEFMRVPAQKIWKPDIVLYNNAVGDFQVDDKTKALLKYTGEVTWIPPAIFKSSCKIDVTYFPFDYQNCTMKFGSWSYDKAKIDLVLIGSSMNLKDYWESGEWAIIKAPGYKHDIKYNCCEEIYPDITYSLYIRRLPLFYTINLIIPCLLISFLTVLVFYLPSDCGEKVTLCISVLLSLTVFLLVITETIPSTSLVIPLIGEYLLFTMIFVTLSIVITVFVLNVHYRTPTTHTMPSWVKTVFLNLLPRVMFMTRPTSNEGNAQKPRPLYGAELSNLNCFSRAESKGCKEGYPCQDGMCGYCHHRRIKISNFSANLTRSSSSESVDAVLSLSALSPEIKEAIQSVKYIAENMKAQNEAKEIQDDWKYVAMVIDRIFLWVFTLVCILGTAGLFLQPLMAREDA

[3] = species: Homo sapiens; test: Selectivity ratio of IC50 for alpha4beta2 nAChR (unknown origin) expressed in Xenopus laevis oocytes to IC50 for alpha3beta4 nAChR (unknown origin) expressed in Xenopus laevis oocytes
[4] = biological target: T2, Neuronal acetylcholine receptor; alpha3/beta4; test: Antagonist activity at alpha3beta4 nAChR (unknown origin) expressed in Xenopus laevis oocytes assessed as inhibition of Ach-induced channel activation at -100 mV holding potential treated for 1 min by two electrode voltage-clamp assay relative to PhTX-343 IC50
[5] = biological target: T1, Neuronal acetylcholine receptor; alpha4/beta2; test: Antagonist activity at alpha4beta2 nAChR (unknown origin) expressed in Xenopus laevis oocytes assessed as inhibition of Ach-induced channel activation at -100 mV holding potential treated for 1 min by two electrode voltage-clamp assay relative to PhTX-343 IC50

SMILES	IC50 [1]	IC50 [2]	Ratio IC50 [3]	Ratio IC50 [4]	Ratio IC50 [5]
CCCC(=O)N[C@@H](CCc1ccccc1)C(=O)NCCCNCCCCNCCCN	20.8 nM	1.74 nM	12	4.4	3.9
NCCCNCCCCNCCCNC(=O)[C@H](CC1CCCCC1)NC(=O)/C=C/c1ccccc1	12.1 nM	0.35 nM	34.6	21.9	6.6
NCCCNCCCCNCCCNC(=O)[C@H](CC1CCCCC1)NC(=O)CC1CC2CCC1C2 (stereo partly drawn)	25.6 nM	0.95 nM	26.9	8.1	3.1
CCCC(=O)N[C@@H](Cc1ccc(O)cc1)C(=O)NCCCNC[C@@H]1C[C@H]1CNCCCN	44.3 nM	0.92 nM	48.2	8.3	1.8
CCCC(=O)N[C@@H](Cc1ccc(O)cc1)C(=O)NCCCNC[C@H]1C[C@H]1CNCCCN	47.4 nM	1.44 nM	32.9	5.3	1.7
CCCC(=O)N[C@@H](Cc1ccccc1)C(=O)NCCCNCCCCNCCCN	27.8 nM	0.93 nM	29.9	8.2	2.9
CCCC(=O)N[C@@H](CC1CCCCC1)C(=O)NCCCNCCCCNCCCN	2.58 nM	2.62 nM	1	2.9	31.1
NCCCNCCCCNCCCNC(=O)[C@H](Cc1ccc(O)cc1)NC(=O)C1CCCCC1	36.6 nM	0.46 nM	79.6	16.6	2.2
NCCCNCCCCNCCCNC(=O)[C@H](CC1CCCCC1)NC(=O)C1CCC1	20.8 nM	1.07 nM	19.4	7.1	3.9
NCCCNCCCCNCCCNC(=O)[C@H](CC1CCCCC1)NC(=O)C1CCCCC1	31.4 nM	2.19 nM	14.3	3.5	2.6
NCCCNCCCCNCCCNC(=O)[C@H](CC1CCCCC1)NC(=O)C1CCCC1	5.43 nM	0.65 nM	8.4	11.8	14.8
NCCCNCCCCNCCCNC(=O)[C@H](CC1CCCCC1)NC(=O)C1CC1	112 nM	2.63 nM	42.6	2.9	0.7
NCCCNCCCCNCCCNC(=O)[C@H](CC1CCCCC1)NC(=O)c1ccc(-c2ccccc2)cc1	25.8 nM	2.83 nM	9.1	2.7	3.1
NCCCNCCCCNCCCNC(=O)[C@H](Cc1ccc(O)cc1)NC(=O)C1CCCC1	22.5 nM	0.57 nM	39.5	13.4	3.6
CCCC(=O)N[C@@H](Cc1ccc(O)cc1)C(=O)NCCCNCCCCNCCCN [PHILANTHOTOXIN 343]	80.2 nM	7.65 nM	10.5		
NCCCNCCCCNCCCNC(=O)[C@H](CC1CCCCC1)NC(=O)c1ccccc1	21.4 nM	0.37 nM	57.8	20.7	3.7
NCCCNCCCCNCCCNC(=O)[C@H](CC1CCCCC1)NC(=O)C1CCCCCC1	28.2 nM	0.55 nM	51.3	13.9	2.8
NCCCNCCCCNCCCNC(=O)[C@H](CC1CCCCC1)NC(=O)Cc1cccc2ccccc12	14.6 nM	0.16 nM	91.3	47.8	5.5
